{"source": "ChEMBL document CHEMBL5226309", "about": "“Synthetic RNA Modulators in Drug Discovery” (J Med Chem, 2021)", "key": {"[1]": {"assay": "Inhibition of miR-21 (unknown origin) at 1 uM by differential scanning fluorometry analysis relative to control"}, "[2]": {"assay": "Inhibition of miR-21 in human MDA-MB-231 cells", "type": "cell-based"}, "A549": {"system": "A549", "assay": "Inhibition of miR-21 in human A549 cells assessed as decrease in pre-miR-21 level at 50 nM relative to control", "type": "cell-based"}, "A-375": {"system": "A-375", "assay": "Inhibition of miR-21 in human A-375 cells assessed as decrease in pre-miR-21 level at 50 nM relative to control", "type": "cell-based"}, "MDA-MB-231": {"system": "MDA-MB-231", "assay": "Inhibition of miR-21 in human MDA-MB-231 cells assessed as decrease in pre-miR-21 level at 50 nM relative to control", "type": "cell-based"}, "[3]": {"assay": "Binding affinity to miR-21 (unknown origin) assessed as dissociation constant by fluorescence based analysis"}, "[4]": {"assay": "Upregulation of miR-122 expression in human Huh-7 cells at 10 uM incubated for 48 hrs by RT-PCR analysis relative to control", "type": "functional"}, "[5]": {"assay": "Downregulation of alpha-Synuclein level in human SH-SY5Y cells at 5 uM relative to control", "type": "functional"}, "[6]": {"assay": "Binding affinity to pre-miR-21 (unknown origin) assessed as dissociation constant by Monolith NT.115 microscale thermophoresis based analysis"}, "HEK293 [7]": {"system": "HEK293", "assay": "Inhibition of miR-125a in human HEK293 cells relative to control", "type": "cell-based", "details": "dose or concentration not given here"}, "[8]": {"assay": "Induction of mRNA mediated IPRF assessed as increase in frame shifting efficiency at 10 uM relative to control"}, "[9]": {"assay": "Induction of mRNA mediated IPRF assessed as increase in frame shifting efficiency at 10 uM in presence of M2-VPK sequence relative to control"}, "HeLa [10]": {"system": "HeLa", "assay": "Induction of mRNA mediated IPRF in human HeLa cells assessed as increase in frame shifting efficiency at 10 uM in presence of F-VPK sequence relative to control", "type": "cell-based"}, "HeLa [11]": {"system": "HeLa", "assay": "Induction of mRNA mediated IPRF in human HeLa cells assessed as increase in frame shifting efficiency at 0.3 uM in presence of M1-FPK sequence relative to control", "type": "cell-based"}, "HeLa [12]": {"system": "HeLa", "assay": "Induction of mRNA mediated IPRF in human HeLa cells assessed as increase in frame shifting efficiency at 0.3 uM in presence of M2-FPK sequence relative to control", "type": "cell-based"}, "[13]": {"assay": "Inhibition of miR-21 (unknown origin) maturation assessed as reduction in pre-miR-21 expression at 10 uM by RT-PCR analysis relative to control"}, "[14]": {"assay": "Inhibition of miR-21 (unknown origin) by luciferase reporter assays relative to control", "details": "concentration not given here"}, "[15]": {"assay": "Binding affinity to TAR mRNA assessed as dissociation constant by ITC analysis"}, "[16]": {"assay": "Displacement of Tat from TAR mRNA by FRET analysis"}, "Hepatitis C virus": {"system": "Hepatitis C virus", "assay": "Antiviral activity against HCV JFH-1 infected in human Huh-7 cells assessed as reduction in viral replication measured after 48 hrs by RT-PCR analysis relative to control", "type": "functional, Hepacivirus hominis", "parameters": "scale not given: the % may be the effect or the level left"}, "[17]": {"assay": "Downregulation of miR-122 expression in human Huh-7 cells at 10 uM incubated for 48 hrs by RT-PCR analysis relative to control", "type": "functional"}, "HEK293 [18]": {"system": "HEK293", "assay": "Inhibition of miR-125a in human HEK293 cells assessed as increase in mature miR-21 level at 50 uM relative to control", "type": "cell-based"}, "HEK293 [19]": {"system": "HEK293", "assay": "Inhibition of miR-125a in human HEK293 cells assessed as increase in pre miR-21 level at 50 uM relative to control", "type": "cell-based"}, "[20]": {"assay": "Binding affinity to HIV-1 mRNA assessed as dissociation constant", "parameters": "species or system Human immunodeficiency virus 1"}}}
{"smiles": "NC[C@@H]1O[C@H](O[C@H]2[C@@H](O)[C@H](O[C@@H]3[C@@H](O)[C@H](N)C[C@H](N)[C@H]3O[C@H]3O[C@H](CN)[C@@H](O)[C@H](O)[C@H]3N)O[C@@H]2CSCCNC(=O)CCCCCn2cc(COc3ccc4c(c3)C(=O)N(O)C(=O)C4)nn2)[C@H](N)[C@@H](O)[C@@H]1O", "values": [{"measurement": "inhibition", "setting": "[1]", "result": 90, "unit": "%"}]}
{"smiles": "CCCN(CC(=O)N(CCC)CC(=O)N(CCC)CC(=O)N(CC(=O)NCCOCCOCCOCCOc1ccc(/C=C2\\SC(Nc3ccccc3)=C(C(=O)OCC)C2=O)cc1O)Cc1cn(CCCNC(=O)CCCOc2ccc(-c3nc4ccc(-c5ccc(N6CCN(C)CC6)cc5)cc4[nH]3)cc2)nn1)C(=O)CNCc1cn(CCCNC(=O)CCCOc2ccc(-c3nc4ccc(-c5ccc(N6CCN(C)CC6)cc5)cc4[nH]3)cc2)nn1", "values": [{"measurement": "IC50", "setting": "[2]", "result": 50, "unit": "nM"}, {"measurement": "inhibition", "setting": "A549", "result": 50, "unit": "%"}, {"measurement": "inhibition", "setting": "A-375", "result": 50, "unit": "%"}, {"measurement": "inhibition", "setting": "MDA-MB-231", "result": 50, "unit": "%"}]}
{"smiles": "CNC(=O)c1cc(Oc2ccc(NC(=O)Nc3ccc(Cl)c(C(F)(F)F)c3)c(F)c2)ccn1", "note": "[REGORAFENIB]", "values": [{"measurement": "Kd", "setting": "[3]", "result": 730, "unit": "nM"}]}
{"smiles": "CN(C)CCN1C(=O)c2cccc3cc(N)cc(c23)C1=O", "note": "[AMONAFIDE]", "values": [{"measurement": "Activity", "setting": "[4]", "result": 450, "unit": "%"}]}
{"smiles": "c1cc(C2=NCCN2)ccc1Oc1ccc(-c2nc3ccc(C4=NCCN4)cc3[nH]2)cc1", "values": [{"measurement": "Activity", "setting": "[5]", "result": 40, "unit": "%"}]}
{"smiles": "CCCN(CC(=O)N(CCC)CC(=O)N(CCC)CC(=O)N(CC(=O)O)Cc1cn(CCCNC(=O)CCCOc2ccc(-c3nc4ccc(-c5ccc(N6CCN(C)CC6)cc5)cc4[nH]3)cc2)nn1)C(=O)CNCc1cn(CCCNC(=O)CCCOc2ccc(-c3nc4ccc(-c5ccc(N6CCN(C)CC6)cc5)cc4[nH]3)cc2)nn1", "values": [{"measurement": "Kd", "setting": "[6]", "result": 980, "unit": "nM"}]}
{"smiles": "CCn1cc(C(=O)NCc2ccccc2)c(=O)c2cc(F)c(N3CCNCC3)nc21", "values": [{"measurement": "inhibition", "setting": "HEK293 [7]", "result": 30, "unit": "%"}]}
{"smiles": "Cc1ccc2ccc(NC(=O)CCN(CCCCCCCCN(CCC(=O)Nc3ccc4ccc(C)nc4n3)CCC(=O)Nc3ccc4ccc(C)nc4n3)CCC(=O)Nc3ccc4ccc(C)nc4n3)nc2n1", "values": [{"measurement": "Activity", "setting": "[8]", "result": 13, "unit": "%"}, {"measurement": "Activity", "setting": "[9]", "result": 15, "unit": "%"}, {"measurement": "Activity", "setting": "HeLa [10]", "result": 21, "unit": "%"}, {"measurement": "Activity", "setting": "HeLa [11]", "result": 0.35, "unit": "%"}, {"measurement": "Activity", "setting": "HeLa [12]", "result": 0.32, "unit": "%"}]}
{"smiles": "C#CCNC(=O)c1ccc(/N=N/c2ccccc2)cc1", "values": [{"measurement": "inhibition", "setting": "[13]", "result": 78, "unit": "%"}, {"measurement": "inhibition", "setting": "[14]", "result": 11, "unit": "%"}]}
{"smiles": "CN(C)CCCn1cc(CNC(=O)Cc2csc(NC(=O)Cc3csc(N)n3)n2)nn1", "values": [{"measurement": "Kd", "setting": "[15]", "result": 540, "unit": "nM"}, {"measurement": "DC50", "setting": "[16]", "result": 1500, "unit": "nM"}]}
{"smiles": "O=S(=O)(c1ccc2c(c1)CCCN2)N1CCC[C@@H]2CCCC[C@H]21", "values": [{"measurement": "Activity", "setting": "Hepatitis C virus", "result": 47, "unit": "%"}, {"measurement": "Activity", "setting": "[17]", "result": 45, "unit": "%"}]}
{"smiles": "CCn1cc(C(=O)NC(C)(C)C)c(=O)c2cc(F)c(N3CCNCC3)nc21", "values": [{"measurement": "inhibition", "setting": "HEK293 [7]", "result": 20, "unit": "%"}]}
{"smiles": "CCn1cc(C(=O)O)c(=O)c2cc(F)c(N3CCNCC3)nc21", "values": [{"measurement": "inhibition", "setting": "HEK293 [18]", "result": 150, "unit": "%"}, {"measurement": "inhibition", "setting": "HEK293 [19]", "result": 100, "unit": "%"}, {"measurement": "inhibition", "setting": "HEK293 [7]", "result": 100, "unit": "%"}]}
{"smiles": "CC(=O)Nc1nc(-c2cccc(NC(=O)C(CNC(=O)[C@@H](N)CCCNC(=N)N)NC(=O)[C@@H](N)CCCNC(=N)N)c2)cs1", "note": "(some centres not stated)", "values": [{"measurement": "Kd", "setting": "[20]", "result": 2400, "unit": "nM"}]}
{"smiles": "N#Cc1ccc(Nc2ccc(-c3nc4ccc(C#N)cc4[nH]3)cc2)cc1", "values": [{"measurement": "Activity", "setting": "[5]", "result": 40, "unit": "%"}]}
